Assay results published in US20080255186A1, “Pyrazolo[3,4-B]Pyridine Compound, and Its Use as a Pde4 Inhibitor” (priority 2005, published 2008).

Molecular target: PDE5 (human recombinant) (Homo sapiens, UniProt O76074)
Assay: PDE5 inhibition (FP or SPA general type of assay)
Assay type: biochemical
Conditions: in the particular assays used
Text: Human recombinant PDE5 is disclosed in K. Loughney et al., “Isolation and characterisation of cDNAs encoding PDE5A, a human cGMP-binding, cGMP-specific 3′,5′-cyclic nucleotide phosphodiesterase”, Gene, 1998, 216, 139-147.
The ability of compounds to inhibit catalytic activity at PDE4B or 4D (human recombinant), PDE3 (from bovine aorta), PDE5 (human recombinant) or PDE6 (from bovine retina) can optionally be determined by Scintillation Proximity Assay (SPA) in a 96-well format.
Test compounds (as a solution in DMSO, suitably about 2 microlitre (ul) volume of DMSO solution) are preincubated at ambient temperature (room temperature, e.g. 19-23° C.) in Wallac Isoplates (code 1450-514) with PDE enzyme in 50 mM Tris-HCl buffer pH 7.5, 8.3 mM MgCl2, 1.7 mM EGTA, 0.05% (w/v) bovine serum albumin for 10-30 minutes (usually 30 minutes). […] Bound radioactive product is measured using a WALLAC TRILUX 1450 Microbeta scintillation counter. […] Curves are analysed using ActivityBase and XLfit (ID Business Solutions Limited, 2 Ocean Court, Surrey Research Park, Guildford, Surrey GU2 7QB, United Kingdom). Results are expressed as pIC50 values.
The compound of the invention (e.g. as prepared in Example 1) has also been tested for PDE3, PDE5 and PDE6 inhibition, e.g. using (independently for each PDE type) either a Fluorescence Polarisation (FP) general type of assay or using an SPA general type of assay.

CCc1nc2c(cnn2CC)c(NC2CCOCC2)c1CNC(=O)c1cc(C)no1 [Example 1, N-{[1,6-diethyl-4-(tetrahydro-2H-pyran-4-ylamino)-1H-pyrazolo[3,4-b]pyridin-5-yl]methyl}-3-methyl-5-isoxazolecarboxamide]
PDE4B pIC50 compared with PDE5 pIC50 (selectivity): inhibits PDE4B more strongly than it inhibits PDE3, PDE5 and PDE6
